Assay results published in patent US8241648B2, “Amphiphilic or lipophilic polar functionalized fullerenes and their uses” (Luna Innovations Incorporated, priority 2007, dated 2012).

Assay: Radical addition of an unstable nitrogen:peroxide radical (immobilized activated amine, butanone peroxide, xylene), measured by HPLC
Settings: control anti-oxidant in xylene, same conditions
Method: An unstable nitrogen radical was made by adding butanone peroxide to nitrogen immobilized on a solid substrate in the presence of either C70, C60 or, as a control, the anti-oxidant Vitamin E in xylene. Radical addition of the substrate to the immobilized, activated amine is measured by HPLC. […] 74% of the C70 was bound to the nitrogen while only 27% of the C60 was bound.

Vitamin E
reaction with the unstable nitrogen radical: did not react at all
